For one compound, IC50 results are on record in ChEMBL document CHEMBL1201862, “PubChem BioAssay data set” (2004).

This test concerns the target T1, Exodeoxyribonuclease V (Escherichia coli (strain K12), UniProt P04993+P07648+P08394).
T1 sequence (P04993 whole entry): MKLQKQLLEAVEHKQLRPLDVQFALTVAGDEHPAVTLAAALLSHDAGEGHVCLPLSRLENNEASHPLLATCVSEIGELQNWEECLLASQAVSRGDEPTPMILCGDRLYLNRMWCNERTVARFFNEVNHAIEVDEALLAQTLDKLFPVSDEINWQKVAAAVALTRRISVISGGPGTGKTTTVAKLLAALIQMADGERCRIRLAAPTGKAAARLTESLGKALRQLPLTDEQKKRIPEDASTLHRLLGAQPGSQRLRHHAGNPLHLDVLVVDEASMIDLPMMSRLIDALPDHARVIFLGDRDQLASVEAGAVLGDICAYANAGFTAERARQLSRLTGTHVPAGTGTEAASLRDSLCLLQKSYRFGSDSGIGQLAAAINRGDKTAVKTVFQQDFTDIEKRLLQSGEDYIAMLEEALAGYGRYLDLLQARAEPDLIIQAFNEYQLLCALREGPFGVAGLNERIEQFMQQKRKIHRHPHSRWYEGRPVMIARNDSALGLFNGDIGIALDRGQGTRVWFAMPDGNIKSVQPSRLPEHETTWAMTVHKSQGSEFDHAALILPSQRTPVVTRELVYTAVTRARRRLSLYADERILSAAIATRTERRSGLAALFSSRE
T1 sequence (P07648 whole entry): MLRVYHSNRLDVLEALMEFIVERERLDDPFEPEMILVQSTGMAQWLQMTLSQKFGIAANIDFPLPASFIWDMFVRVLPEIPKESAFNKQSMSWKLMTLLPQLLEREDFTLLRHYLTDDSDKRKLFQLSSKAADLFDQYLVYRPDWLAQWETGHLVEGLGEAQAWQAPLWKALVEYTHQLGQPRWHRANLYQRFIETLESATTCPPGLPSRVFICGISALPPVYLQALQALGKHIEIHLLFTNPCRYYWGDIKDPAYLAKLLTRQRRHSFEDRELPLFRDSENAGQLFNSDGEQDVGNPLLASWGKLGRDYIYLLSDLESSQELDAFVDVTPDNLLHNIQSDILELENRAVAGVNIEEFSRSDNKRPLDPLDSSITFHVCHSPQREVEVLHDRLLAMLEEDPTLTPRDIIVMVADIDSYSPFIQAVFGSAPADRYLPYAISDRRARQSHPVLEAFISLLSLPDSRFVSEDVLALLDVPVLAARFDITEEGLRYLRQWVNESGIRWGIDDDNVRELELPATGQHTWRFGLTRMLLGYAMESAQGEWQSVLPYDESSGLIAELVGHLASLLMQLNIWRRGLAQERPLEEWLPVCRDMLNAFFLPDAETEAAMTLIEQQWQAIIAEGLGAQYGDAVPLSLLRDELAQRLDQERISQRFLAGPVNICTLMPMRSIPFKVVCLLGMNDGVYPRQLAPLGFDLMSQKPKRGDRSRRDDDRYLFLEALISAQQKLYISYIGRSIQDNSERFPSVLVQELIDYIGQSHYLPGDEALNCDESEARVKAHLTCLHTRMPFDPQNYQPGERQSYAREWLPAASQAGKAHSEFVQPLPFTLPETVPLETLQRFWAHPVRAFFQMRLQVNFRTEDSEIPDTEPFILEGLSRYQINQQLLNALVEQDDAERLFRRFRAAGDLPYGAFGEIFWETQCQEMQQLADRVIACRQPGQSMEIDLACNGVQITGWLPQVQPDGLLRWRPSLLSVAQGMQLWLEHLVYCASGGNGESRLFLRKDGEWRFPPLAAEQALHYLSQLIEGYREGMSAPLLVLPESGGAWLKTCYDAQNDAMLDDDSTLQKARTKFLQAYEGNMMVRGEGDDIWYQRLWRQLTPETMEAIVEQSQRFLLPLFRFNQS
T1 sequence (P08394 whole entry): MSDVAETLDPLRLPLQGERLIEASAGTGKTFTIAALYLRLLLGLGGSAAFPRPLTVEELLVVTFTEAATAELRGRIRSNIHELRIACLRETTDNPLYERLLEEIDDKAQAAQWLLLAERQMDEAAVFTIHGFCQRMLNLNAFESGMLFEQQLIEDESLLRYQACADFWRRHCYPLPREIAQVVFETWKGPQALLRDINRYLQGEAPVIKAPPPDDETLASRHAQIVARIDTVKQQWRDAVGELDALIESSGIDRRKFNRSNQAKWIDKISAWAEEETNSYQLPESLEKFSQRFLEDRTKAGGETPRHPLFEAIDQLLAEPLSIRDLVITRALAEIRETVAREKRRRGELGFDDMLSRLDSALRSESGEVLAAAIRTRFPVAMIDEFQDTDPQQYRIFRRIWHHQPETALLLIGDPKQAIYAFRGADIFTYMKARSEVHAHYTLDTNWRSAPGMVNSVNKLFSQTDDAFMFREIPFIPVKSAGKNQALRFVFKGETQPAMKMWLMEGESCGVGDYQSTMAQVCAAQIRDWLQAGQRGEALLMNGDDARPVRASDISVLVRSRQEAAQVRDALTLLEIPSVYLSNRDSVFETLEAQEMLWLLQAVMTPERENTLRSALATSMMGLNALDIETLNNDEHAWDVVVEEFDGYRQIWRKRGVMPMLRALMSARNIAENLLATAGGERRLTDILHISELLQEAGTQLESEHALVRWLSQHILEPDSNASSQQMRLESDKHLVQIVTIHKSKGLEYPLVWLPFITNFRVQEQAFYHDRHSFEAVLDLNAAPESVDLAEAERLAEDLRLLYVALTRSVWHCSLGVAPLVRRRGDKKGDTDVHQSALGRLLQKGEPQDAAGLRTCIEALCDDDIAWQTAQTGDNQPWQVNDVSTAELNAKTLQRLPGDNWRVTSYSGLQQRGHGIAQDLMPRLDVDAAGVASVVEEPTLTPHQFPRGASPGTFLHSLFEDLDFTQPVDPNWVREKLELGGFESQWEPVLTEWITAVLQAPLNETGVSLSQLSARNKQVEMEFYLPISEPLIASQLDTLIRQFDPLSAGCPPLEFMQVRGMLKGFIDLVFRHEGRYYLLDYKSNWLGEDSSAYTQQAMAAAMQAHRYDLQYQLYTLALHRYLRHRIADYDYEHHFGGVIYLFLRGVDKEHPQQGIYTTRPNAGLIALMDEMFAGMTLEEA
In words: RecBCD inhibition via phage-restricted bacterial growth – absorbance, V66 E. coli, mutant T4 phage, counter-screen for AddAB inhibitor project, dose response (AID 492957). The test is classed as functional, cell-based, Escherichia coli str. K-12 substr. MG1655. On the technique in general: Counterscreens check selectivity or assay interference.

Molecules are shown by their SMILES. Activity calls are given as the source filed them. No rule for the calls is given here.

The term IC50 denotes the concentration at which inhibition is half-maximal. With `CCCCC(=O)NC(c1ccc(N(CC)CC)cc1)c1ccc2cccnc2c1O` (stereo unspecified), the IC50 is > 119 µM (inactive).
